Reference: patent US8846666B2, “Oxathiazine derivatives which are substituted with benzyl or heteromethylene groups, method for producing them, their use as medicine and drug containing said derivatives and the use thereof” (Sanofi, priority 2011, dated 2014)

Target: human 11β-HSD1 microsome fraction (Homo sapiens, UniProt P28845)
Assay: Enzymatic 11Beta-HSD1 test (SPA-based detection)
Assay type: biochemical
Details: [1,2-3H]-cortisone, NADPH, 37° C. for 1 hour
Protocol: Enzymatic 11Beta-HSD1 Test:
To measure the activity of the compounds, an SPA-based detection method (Solly et al. 2005) was employed. First of all, 20 μl of the human 11β-HSD1 microsome fraction (0.2 μg of protein), prepared in 50 mM HEPES, 0.1% BSA (w/v), were applied to a plate with 384 wells. The test compounds (0.09 μl) were applied to the assay plate in 100% DMSO. The reaction was started by addition of 20 μl of [1,2-^3H]-cortisone (0.1 μCi/[…]) in assay buffer comprising 25 mM HEPES, 100 mM KCl, 5 mM NaCl, 2 mM MgCl2 and 0.25 mM NADPH. The plate was agitated at 37° C. for 1 hour. At the same time, a stop solution comprising 20 mg/ml SPA-PVT beads, 1.6 mg/ml monoclonal cortisol antibody and 0.01 mM SSR110887 (inhibitor from the Biovitrium patent) in 50 mM HEPES, 1 M NaCl and 1 M KCl was stirred at room temperature. To stop the reaction, 25 μl of the stop solution were added to each well. The plate was agitated gently at room temperature for 1 further hour and then centrifuged at 500 gav for 1 min, in order that the SPA beads could settle out. The plate was then read in a Wallac-1450-Microbeta unit with a standard SPA program (counting time 1 min/well). The comparative compound was glycyrrhetinic acid.
Protein and radioactive substrate were dispensed with a Biomek FX unit (Beckman Coulter) for handling liquids. The test compounds were added with a Cybi-Well equipped with a 90 nl pin tool (CyBio).
Lit.: Solly S, Mundt S S, Zokian H J, Juy-Fang Ding G, Hermanowski-Vosatka A, Strulovici B and Zheng W. High-throughput screening of 11β-Hydroxysteroid dehydrogenase type 1 in scintillation proximity format. Assay Drug Dev Technol 2005; 3:377-384.

Chain of human 11β-HSD1 microsome fraction (P28845 whole entry): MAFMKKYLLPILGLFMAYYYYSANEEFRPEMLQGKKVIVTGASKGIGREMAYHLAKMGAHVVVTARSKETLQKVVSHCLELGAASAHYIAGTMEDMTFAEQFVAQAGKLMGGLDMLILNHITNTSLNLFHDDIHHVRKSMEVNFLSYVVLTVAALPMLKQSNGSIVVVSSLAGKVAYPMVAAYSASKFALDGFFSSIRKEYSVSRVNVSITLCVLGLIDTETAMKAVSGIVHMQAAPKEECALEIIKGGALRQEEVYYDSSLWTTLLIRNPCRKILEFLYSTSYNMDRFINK

SMILES	IC50
CC1(C)OC(N[C@@H](CCO)c2ccccc2F)=NS(=O)(=O)C1Cc1ccc(C2CCNCC2)cc1 (stereo partly drawn) [Example 22, (S)-3-[6,6-Dimethyl-4,4-dioxo-5-(4-piperidin-4-yl-benzyl)-5,6-dihydro-4H-4lambda6-[1,4,3]oxathiazin-2-ylamino]-3-(2-fluorophenyl)-propan-1-ol]	7 nM
CC1(C)OC(N[C@@H](CCO)c2cc(Cl)ccc2F)=NS(=O)(=O)C1Cc1ccccc1 (stereo partly drawn) [Example 14, (S)-3-(5-Benzyl-6,6-dimethyl-4,4-dioxo-5,6-dihydro-4H-4lambda6-[1,4,3]oxathiazin-2-ylamino)-3-(5-chloro-2-fluorophenyl)-propan-1-ol]	4 nM
CC1(C)OC(N[C@@H](CCO)c2ccccc2F)=NS(=O)(=O)[C@@H]1Cc1ccc(C2CCN(C3CC3)CC2)cc1 [Example 41, (S)-3-{(R)-5-[4-(1-Cyclopropyl-piperidin-4-yl)-benzyl]-6,6-dimethyl-4,4-dioxo-5,6-dihydro-4H-4lambda6-[1,4,3]oxathiazin-2-ylamino}-3-(2-fluoro-phenyl)-propan-1-ol]	32 nM
CC1(C)OC(N[C@@H](CCO)c2ccccc2F)=NS(=O)(=O)C1Cc1ccc(-c2ccc(C(F)(F)F)cn2)cc1 (stereo partly drawn) [Example 8, (S)-3-{6,6-Dimethyl-4,4-dioxo-5-[4-(5-trifluoromethyl-pyridin-2-yl)-benzyl]-5,6-dihydro-4H-4lambda6-[1,4,3]oxathiazin-2-ylamino}-3-(2-fluoro-phenyl)-propan-1-ol]	7 nM
CC1(C)OC(N[C@@H](CCO)c2ccccc2F)=NS(=O)(=O)C1Cc1ccc(C2CCN(CCO)CC2)cc1 (some centres unmarked) [Example 27]	5 nM
CC1(C)OC(N[C@@H](CCO)c2ccccc2F)=NS(=O)(=O)C1(C)Cc1ccc(-c2ccc(C(F)(F)F)cn2)cc1 (stereo partly drawn) [Example 7, (S)-3-(2-Fluorophenyl)-3-{5,6,6-trimethyl-4,4-dioxo-5-[4-(5-trifluoromethyl-pyridin-2-yl)-benzyl]-5,6-dihydro-4H-4lambda6-[1,4,3]oxathiazin-2-ylamino}-propan-1-ol]	12 nM
CC1(C)OC(N[C@@H](CCO)c2ccccc2F)=NS(=O)(=O)C1Cc1ccc(C2CCN(CCC(F)(F)F)CC2)cc1 (stereo partly drawn) [Example 29, (S)-3-(6,6-Dimethyl-4,4-dioxo-5-{4-[1-(3,3,3-trifluoropropyl)-piperidin-4-yl]-benzyl}-5,6-dihydro-4H-4lambda6-[1,4,3]oxathiazin-2-ylamino)-3-(2-fluorophenyl)-propan-1-ol]	7 nM
CC1(C)OC(N[C@@H](CCO)c2ccccc2)=NS(=O)(=O)C1Cc1ccccc1 (stereo partly drawn) [Example 2, (S)-3-(5-Benzyl-6,6-dimethyl-4,4-dioxo-5,6-dihydro-4H-4lambda6-[1,4,3]oxathiazin-2-ylamino)-3-phenyl-propan-1-ol]	7 nM
C[C@H](NC1=NS(=O)(=O)C(Cc2ccc(C3CCN(CCO)CC3)cc2)C(C)(C)O1)c1ccccc1F (stereo partly drawn) [Example 37, 2-[4-(4-{2-[(S)-1-(2-fluorophenyl)-ethylamino]-6,6-dimethyl-4,4-dioxo-5,6-dihydro-4H-4lambda6-[1,4,3]oxathiazin-5-ylmethyl}-phenyl)-piperidin-1-yl]-ethanol]	37 nM
COC(=O)N1CCC(c2ccc(CC3C(C)(C)OC(N[C@@H](C)c4ccccc4F)=NS3(=O)=O)cn2)CC1 (stereo partly drawn) [Example 44, 5-{2-[(S)-1-(2-fluorophenyl)-ethylamino]-6,6-dimethyl-4,4-dioxo-5,6-dihydro-4H-4lambda6-[1,4,3]oxathiazin-5-ylmethyl}-3′,4′,5′,6′-tetrahydro-2′H-[2,4′]bipyridinyl-1′-carboxylic acid methyl ester]	5 nM
CN1CCC(c2ccc(CC3C(C)(C)OC(N[C@@H](CCO)c4ccccc4F)=NS3(=O)=O)cc2)CC1 (some centres unmarked) [Example 25]	20 nM
CC1(C)OC(N[C@@H](CCO)c2ccccc2F)=NS(=O)(=O)[C@@H]1Cc1ccc(C2CCNCC2)cc1 [Example 34, (S)-3-[(R)-6,6-Dimethyl-4,4-dioxo-5-(4-piperidin-4-yl-benzyl)-5,6-dihydro-4H-4lambda6-[1,4,3]oxathiazin-2-ylamino]-3-(2-fluorophenyl)-propan-1-ol]	8 nM
C[C@H](NC1=NS(=O)(=O)C(Cc2ccc(C3CCNCC3)cc2)C(C)(C)O1)c1ccccc1F (stereo partly drawn) [Example 38, [6,6-Dimethyl-4,4-dioxo-5-(4-piperidin-4-yl-benzyl)-5,6-dihydro-4H-4lambda6-[1,4,3]oxathiazin-2-yl]-[(S)-1-(2-fluorophenyl)-ethyl]-amine]	7 nM
CC1(C)OC(N[C@@H](CCO)c2ccccc2F)=NS(=O)(=O)C1Cc1ccc(C2CCN(C3CC3)CC2)cc1 (stereo partly drawn) [Example 28, (S)-3-{5-[4-(1-Cyclopropyl-piperidin-4-yl)-benzyl]-6,6-dimethyl-4,4-dioxo-5,6-dihydro-4H-4lambda6-[1,4,3]oxathiazin-2-ylamino}-3-(2-fluorophenyl)-propan-1-ol]	9 nM
C[C@H](NC1=NS(=O)(=O)[C@H](Cc2ccc(N3CCNCC3)cc2)C(C)(C)O1)c1ccccc1F [Example 45, [(R)-6,6-Dimethyl-4,4-dioxo-5-(4-piperazin-1-yl-benzyl)-5,6-dihydro-4H-4lambda6-[1,4,3]oxathiazin-2-yl]-[(S)-1-(2-fluorophenyl)-ethyl]-amine]	44 nM
COCCN1CCC(c2ccc(CC3C(C)(C)OC(N[C@@H](C)c4ccccc4F)=NS3(=O)=O)cc2)CC1 (stereo partly drawn) [Example 40, [(S)-1-(2-fluorophenyl)-ethyl]-(5-{4-[1-(2-methoxy-ethyl)-piperidin-4-yl]-benzyl}-6,6-dimethyl-4,4-dioxo-5,6-dihydro-4H-4lambda6-[1,4,3]oxathiazin-2-yl)-amine]	25 nM
CC1(C)OC(N[C@@H](CCO)c2ccccc2F)=NS(=O)(=O)C1Cc1ccc(CCCN2CCOCC2)cc1 (some centres unmarked) [Example 31]	17 nM
CC1(C)OC(NC23CCC(F)(CC2)CC3)=NS(=O)(=O)C1Cc1ccccc1 (centres unmarked) [Example 20, (5-Benzyl-6,6-dimethyl-4,4-dioxo-5,6-dihydro-4H-4lambda6-[1,4,3]oxathiazin-2-yl)-(4-fluoro-bicyclo[2.2.2]oct-1-yl)-amine]	5 nM
CC1(C)OC(N[C@@H](CCO)c2ccccc2F)=NS(=O)(=O)C1Cc1cccc(-c2ccccc2)c1 (stereo partly drawn) [Example 9, (S)-3-(5-Biphenyl-3-ylmethyl-6,6-dimethyl-4,4-dioxo-5,6-dihydro-4H-4lambda6-[1,4,3]oxathiazin-2-ylamino)-3-(2-fluoro-phenyl)-propan-1-ol]	5 nM
CC1(C)OC(N[C@@H](CCO)c2ccccc2F)=NS(=O)(=O)C1Cc1ccc(C2CCN(CC3CC3)CC2)cc1 (stereo partly drawn) [Example 30, (S)-3-{5-[4-(1-Cyclopropylmethyl-piperidin-4-yl)-benzyl]-6,6-dimethyl-4,4-dioxo-5,6-dihydro-4H-4lambda6-[1,4,3]oxathiazin-2-ylamino}-3-(2-fluoro-phenyl)-propan-1-ol]	29 nM
C[C@H](NC1=NS(=O)(=O)[C@@H](Cc2ccc(C3CCN(C4COC4)CC3)cc2)C(C)(C)O1)c1ccccc1F [Example 53, {(S)-6,6-Dimethyl-5-[4-(1-oxetan-3-yl-piperidin-4-yl)-benzyl]-4,4-dioxo-5,6-dihydro-4H-4lambda6-[1,4,3]oxathiazin-2-yl}-[(S)-1-(2-fluorophenyl)-ethyl]-amine]	9 nM
CC1(C)OC(N[C@@H](CCO)c2cccc(Cl)c2)=NS(=O)(=O)C1Cc1ccccc1 (stereo partly drawn) [Example 16, (S)-3-(5-Benzyl-6,6-dimethyl-4,4-dioxo-5,6-dihydro-4H-4lambda6-[1,4,3]oxathiazin-2-ylamino)-3-(3-chlorophenyl)-propan-1-ol]	6 nM
C[C@H](NC1=NS(=O)(=O)[C@@H](Cc2ccc(OCC(C)(C)N)cc2)C(C)(C)O1)c1ccccc1F [Example 55, {(S)-5-[4-(2-Amino-2-methyl-propoxy)-benzyl]-6,6-dimethyl-4,4-dioxo-5,6-dihydro-4H-4lambda6-[1,4,3]oxathiazin-2-yl}-[(S)-1-(2-fluorophenyl)-ethyl]-amine]	8 nM
CC1(C)OC(N[C@@H](CCO)c2ccccc2Cl)=NS(=O)(=O)C1Cc1ccccc1 (stereo partly drawn) [Example 11, (S)-3-(5-Benzyl-6,6-dimethyl-4,4-dioxo-5,6-dihydro-4H-4lambda6-[1,4,3]oxathiazin-2-ylamino)-3-(2-chlorophenyl)-propan-1-ol]	8 nM
CNCCCc1ccc(CC2C(C)(C)OC(N[C@@H](CCO)c3ccccc3F)=NS2(=O)=O)cc1 (stereo partly drawn) [Example 33, (S)-3-{6,6-Dimethyl-5-[4-(3-methylamino-propyl)-benzyl]-4,4-dioxo-5,6-dihydro-4H-4lambda6-[1,4,3]oxathiazin-2-ylamino}-3-(2-fluorophenyl)-propan-1-ol]	30 nM
CC1(C)OC(N[C@@H](CCO)c2ccccc2F)=NS(=O)(=O)C1Cc1cccc2ccccc12 (stereo partly drawn) [Example 21, (S)-3-(6,6-Dimethyl-5-naphthalen-1-ylmethyl-4,4-dioxo-5,6-dihydro-4H-4lambda6-[1,4,3]oxathiazin-2-ylamino)-3-(2-fluorophenyl)-propan-1-ol]	5 nM
